Experimental data as given in patent US20160051560A1, “TREATMENTS INVOLVING ESLICARBAZEPINE OR ESLICARBAZEPINE ACETATE” (BIAL - PORTELA & Cª, S.A., priority 2013, published 2016).

Test system: patients with bipolar I disorder who responded to treatment in the acute phase studies
Experiment: Study BIA-2093-205: recurrence prevention study (2-week open-label Part I, double-blind fixed dose Part II)
Type: in vivo, human
Conditions: for Patient worsening status according to CGI-BP Scale: No worsening / Patient worsening status according to CGI-BP Scale: Worsening: Part II; for Patient worsening status according to CGI-BP Scale: No worsening / Patient worsening status according to CGI-BP Scale: Worsening / median time to withdrawal / patients who withdrew / proportion of patients with MADRS scores ≧18 (depressive symptomatology) / proportion of patients with YMRS scores ≧15 (manic symptomatology) / mean (SD) highest mood scores (patient e-diary, 100-point visual analogue scale) / mean (SD) overall lowest mood scores (patient e-diary, 100-point visual analogue scale): ITT; for mean (SD) highest mood scores (patient e-diary, 100-point visual analogue scale) / mean (SD) overall lowest mood scores (patient e-diary, 100-point visual analogue scale) / patients who withdrew (AE section; withdrawing because of AEs): double-blind period
Procedure: Part I followed an open-label design in which all participants received treatment with ESL 900 mg QD for 2 weeks. Part II followed a double-blind, parallel-group, fixed multiple dose design in which participants were randomly assigned (1:1:1) to one of the following treatment groups: (1) ESL 1800 mg QD, (2) ESL 900 mg QD, and (3) ESL 300 mg QD. […] The occurrence of a new manic/depressive episode was considered a treatment failure, and the patient was discontinued from the study.
If the patient had—in change from preceding phase scale—a score of 5, 6, or 7 in any of 3 categories (mania, depression, or overall bipolar disorder), the illness was considered to have worsened. Secondary efficacy variables included: proportion of patients developing manic symptomatology (YMRS score ≧15); proportion of patients developing depressive symptomatology (MADRS score ≧18); the highest and lowest mood state, collected in the patient diary card; and time to withdrawal. All efficacy assessments were evaluated at each study visit.
Mood was self-evaluated in a 100-point visual analogue scale using the DiaryPRO™ software (Invivodata®, Inc.) implemented on a touch-screen device (Palm™ OS). Patients completed their training in the e-diary use in V1 and were assisted by the study staff when necessary. Data were collected and transferred from the patient's home to the study server on a daily basis.
Medical history and demographic information was obtained at the screening visit. A complete physical and neurological examination was performed at screening, V7 or early discontinuation (EDV), V8 and post-study visit (PSV). Vital signs (pulse rate and blood pressure) were determined at every visit. […] Clinically significant abnormalities in laboratory tests, vital signs or 12-lead ECG were considered as AEs.
Safety was evaluated based on the occurrence of AEs. AEs were documented by the investigator with reference to intensity, dates of occurrence and resolution, outcome and relation to the treatment (causality). Furthermore, each AE was classified as being serious or non-serious. All patients with AEs were followed until their resolution. AEs were coded according to the Medical Dictionary for Regulatory Activities (MedDRA).
Proportions of patients were compared between treatment groups using a Cochran-Mantel-Haenszel (CMH) test stratified by region. […] In all analyses, if the treatment effect was significant (p<0.05) pairwise comparisons were to be performed to assess the differences.
Changes in total YMRS, CGI-BP and MADRS scores were tested by analysis of covariance (ANCOVA) using baseline score value, region, treatment and region-by-treatment interaction as covariates; Dunnett's multiple comparison procedure was used for the comparison of the treatment means. ANCOVA was used to evaluate the change in YMRS score from baseline to the end of the 3-week treatment period, the CGI-BP score at the end of the 3-week treatment period, the MADRS score at the end of the 3-week treatment period, and the highest and lowest mood states (the mean highest and lowest score for each patient was calculated for intervals of 28 calendar days).
Survival analysis was performed using log-rank test/Kaplan-Meier and Cox proportional hazards model.

[1] = Part II Double-Blind Period, ESL 300 mg, n = 35
[2] = Part II Double-Blind Period, ESL 900 mg, n = 26
[3] = Part II Double-Blind Period, ESL 1800 mg, n = 26

## CC(=O)O[C@H]1Cc2ccccc2N(C(N)=O)c2ccccc21 [ESL, (S)-10-acetoxy-10,11-dihydro-5H-dibenz[b,f]azepine-5-carboxamide]
ESL 300 mg QD, n = 34
  Patient worsening status according to CGI-BP Scale: No worsening: 26 (76.5) n (%)
  Patient worsening status according to CGI-BP Scale: Worsening: 6 (17.6) n (%)
ESL 300 mg group
  serious AE: mania: 2 cases
  median time to withdrawal: 254 days
  patients who withdrew: 52.9%
ESL 300 mg group (n=19)
  proportion of patients who prematurely discontinued: 54.3%
ESL 300 mg
  proportion of patients with MADRS scores ≧18 (depressive symptomatology): 14.7%
  proportion of patients with YMRS scores ≧15 (manic symptomatology): 8.8%
  mean (SD) highest mood scores (patient e-diary, 100-point visual analogue scale): 49.2 (11.0)
  mean (SD) overall lowest mood scores (patient e-diary, 100-point visual analogue scale): 45.9 (10.4)
ESL 900 mg QD, n = 25
  Patient worsening status according to CGI-BP Scale: No worsening: 14 (56.0) n (%)
  Patient worsening status according to CGI-BP Scale: Worsening: 10 (40.0) n (%)
ESL 900 mg group
  serious AE: anaemia: 1 case
  serious AE: disease progression: 1 case
  serious AE: oesophageal stenosis: 1 case
  serious AE: pneumonia: 1 case
  median time to withdrawal: 295 days
  patients who withdrew: 52.0%
ESL 900 mg group (n=14)
  proportion of patients who prematurely discontinued: 53.8%
ESL 900 mg
  proportion of patients with MADRS scores ≧18 (depressive symptomatology): 0.0%
  proportion of patients with YMRS scores ≧15 (manic symptomatology): 16.0%
  mean (SD) highest mood scores (patient e-diary, 100-point visual analogue scale): 50.6 (6.4)
  mean (SD) overall lowest mood scores (patient e-diary, 100-point visual analogue scale): 47.3 (12.4)
ESL 1800 mg QD, n = 26
  Patient worsening status according to CGI-BP Scale: No worsening: 16 (61.5) n (%)
  Patient worsening status according to CGI-BP Scale: Worsening: 6 (23.1) n (%)
ESL 1800 mg group
  serious AE: bronchitis: 1 case
  serious AE: depression: 1 case
  serious AE: disease progression: 1 case
  median time to withdrawal: 109 days
  patients who withdrew: 73.1%
ESL 1800 mg group (n=19)
  proportion of patients who prematurely discontinued: 73.1%
ESL 1800 mg
  proportion of patients with MADRS scores ≧18 (depressive symptomatology): 11.5%
  proportion of patients with YMRS scores ≧15 (manic symptomatology): 19.2%
  mean (SD) highest mood scores (patient e-diary, 100-point visual analogue scale): 55.1 (10.4)
  mean (SD) overall lowest mood scores (patient e-diary, 100-point visual analogue scale): 51.1 (12.3)
ITT population, all treatment groups (300, 900, 1800 mg), no significant dose difference (p=0.250)
  patients who showed no worsening according to the CGI-BP scale: at least 50%
Part I Open-Label Period, ESL 900 mg, n = 104
  Any Adverse Events: 20 (19.2) Number (%) of patients
[1]
  Agitation: 2 (5.7) Number (%) of patients
  Any Adverse Events: 14 (40.0) Number (%) of patients
  Aspartate amino-transferase increased: 0 (0.0) Number (%) of patients
  Blood creatine phosphokinase increased: 1 (2.9) Number (%) of patients
  Bronchitis: 0 (0.0) Number (%) of patients
  Depression: 3 (8.6) Number (%) of patients
  Dizziness: 0 (0.0) Number (%) of patients
  Mania: 2 (5.7) Number (%) of patients
  Nausea: 0 (0.0) Number (%) of patients
  Sinus tachycardia: 2 (5.7) Number (%) of patients
[2]
  Agitation: 0 (0.0) Number (%) of patients
  Any Adverse Events: 14 (53.8) Number (%) of patients
  Aspartate amino-transferase increased: 0 (0.0) Number (%) of patients
  Blood creatine phosphokinase increased: 0 (0.0) Number (%) of patients
  Bronchitis: 1 (3.8) Number (%) of patients
  Depression: 3 (11.5) Number (%) of patients
  Dizziness: 0 (0.0) Number (%) of patients
  Mania: 0 (0.0) Number (%) of patients
  Nausea: 0 (0.0) Number (%) of patients
  Sinus tachycardia: 1 (3.8) Number (%) of patients
[3]
  Agitation: 1 (3.8) Number (%) of patients
  Any Adverse Events: 18 (69.2) Number (%) of patients
  Aspartate amino-transferase increased: 2 (7.7) Number (%) of patients
  Blood creatine phosphokinase increased: 3 (11.5) Number (%) of patients
  Bronchitis: 2 (7.7) Number (%) of patients
  Depression: 1 (3.8) Number (%) of patients
  Dizziness: 3 (11.5) Number (%) of patients
  Mania: 0 (0.0) Number (%) of patients
  Nausea: 3 (11.5) Number (%) of patients
  Sinus tachycardia: 0 (0.0) Number (%) of patients
All treatment groups
  deaths: No deaths occurred
ESL 300 mg group (n=3)
  patients who withdrew (AE section; withdrawing because of AEs): 8.6%
ESL 900 mg group (n=3)
  patients who withdrew (AE section; withdrawing because of AEs): 11.5%
ESL 1800 mg group (n=1)
  patients who withdrew (AE section; withdrawing because of AEs): 3.8%
open-label period, ESL 900 mg QD (20 patients)
  patients with AEs: 19.2%
open-label period, ESL 900 mg QD, in 20 patients
  number of AEs reported: 42 AEs
Overall (n=22), similar proportions between treatment groups
  premature discontinuation because of treatment failure: 21.2%
overall, of 104 patients enrolled in Part I (n=35)
  patients completed 6 months of treatment: 33.7%
Recurrence prevention study, comparable between treatment groups
  incidence of treatment-related AEs: < 25 % of patient
